These results are taken from patent US5385947A, “Octahydrophenanthrene derivatives” (Hoffmann-La Roche Inc., priority 1993, dated 1995).

Where a name gives a salt, the structure may show the parent alone.

For series [1], the target named is specific binding sites of dizocilpine ([3H]-MK801) in the rat cortex. Kind of series: 3H-MK801 (dizocilpine) binding test: inhibition of the binding of dizocilpine to the specific binding sites in rat cortex. The settings on record: 50 percent inhibition of specific binding of dizocilpine. On the procedure: The pharmacological activity of some compounds in accordance with the invention and of rac-cis-4b-(2-amino-ethyl)4b,5,6,7,8,8a,9,10-octahydro-phenanthren-8a-ol was determined in vitro according to the method described in Europ. J. Pharmacol. 135, 261 (1987). According to this method [namely the 3H-MK801 (dizocilpine) binding test] the inhibition of the binding of dizocilpine to the specific binding sites in rat cortex by the respective test substances is determined. The IC50 ("50% inhibiting concentration") is that concentration of the respective test substance which brings about a 50 percent inhibition of the specific binding of dizocilpine to the specific binding sites in the rat cortex.
(§1) The thus-determined activity of some compounds in accordance with the invention will be evident from the IC50 values set forth in the following Table; moreover, the Table contains data concerning their toxicity (lowest lethal dosage=LLD in the mouse, p.o.).

For the next series, the system named is mouse. In words: Toxicity (lowest lethal dosage, LLD) in the mouse, p.o. It is filed as in vivo.
Description: as §1

One may read the IC50 as the concentration at which inhibition is half-maximal. `Cl.NCC[C@@]12CCCC[C@]1(O)CCc1ccc(Cl)cc12` (racemic) [rac-cis-4b-(2-Amino-ethyl)-3-chloro-4b,5,6,7,8,8a,9,10-octahydro-phenanthren-8a-ol hydrochloride] yielded an IC50 in series [1] of 84.7 nM. Moreover, the “Toxicity LLD (lowest lethal dosage)” value in the series with mouse stood at 500 mg/kg.

Turning to `Cl.NCC[C@@]12CCCC[C@]1(O)CCc1ccccc12` (racemic) [rac-cis-4b-(2-Amino-ethyl)-4b,5,6,7,8,8a,9,10-octahydro-phenanthren-8a-ol hydrochloride], the IC50 in series [1] was 93 nM. The “Toxicity LLD (lowest lethal dosage)” value in the series with mouse turned out to be 250 mg/kg.

In series [1], `Cl.NCC[C@@]12CCCC[C@]1(O)CCc1ccc(O)cc12` (racemic) [rac-cis-4b-(2-Amino-ethyl)-4b,5,6,7,8,8a,9,10-octahydro-phenanthrene-3,8a-diol hydrochloride] gave an IC50 of 73.4 nM. Further, the “Toxicity LLD (lowest lethal dosage)” value with mouse amounted to 1000 mg/kg.

Take `CN(C)CC[C@@]12CCCC[C@]1(O)CCc1ccccc12` (racemic) [rac-cis-4b-(2-Dimethylamino-ethyl)-4b,5,6,7,8,8a,9,10-octahydro-phenanthren-8a-ol hydrochloride]: the IC50 in series [1] turned out to be 453 nM.

With `Cl.NCC[C@@]12CCCC[C@]1(O)CCc1c(F)cc(Cl)cc12` (racemic) [rac-cis-4b-(2-Amino-ethyl)-3-chloro-1-fluoro-4b,5,6,7,8,8a,9,10-octahydro-phenanthren-8a-ol hydrochloride], the IC50 in series [1] was found to be 107 nM. In the series with mouse, the “Toxicity LLD (lowest lethal dosage)” value was determined as 1000 mg/kg.

Regarding `CN(C)CC[C@@]12CCCC[C@]1(O)CCc1ccc(Cl)cc12.Cl` (single isomer, unassigned) [(-)-cis-3-Chloro-4b-(2-dimethylamino-ethyl)-4b,5,6,7,8,8a,9,10-octahydro-phenanthren-8a-ol hydrochloride], the IC50 in series [1] was 254 nM. Also, the “Toxicity LLD (lowest lethal dosage)” value in the series with mouse worked out at 375 mg/kg.
